PubChem BioAssay AID2060346 (Molecular Pharmacology Branch, DTP, NCI, 2025)
Values joined by “and” are separate entries in the source; they are usually repeats but may differ in a detail not shown here. Equal entries are not always repeated. One block for each compound: values may come before it.

Tested on: CN0375-F725-PDC multi-cell spheroids, viability
Experiment: Anticancer human tumor CN0375-F725-PDC patient-derived colon carcinoma cell line growth inhibition [TAK]
Conditions: for viability, T/C: stronger effect = lower value
Source text: Combinatorial screen of targeted agents with TAK-243 and ipatasertib in multi-cell type tumor spheroids
A high-throughput screen of multi-cell type tumor spheroids was designed to identify active combinations of targeted small molecules and TAK-243 or ipatasertib. Complex spheroids include a stromal component modeled by human endothelial cells (HUVEC) and fibroblasts modeled by human mesenchymal stem cells (MSCs). The concentration ranges selected for each drug and investigational agent were based upon clinically achievable concentrations if the clinical Cmax of the agent was known.
Compounds. The drugs and investigational agents: TAK-243 (785004), ipatasertib (767898), everolimus (733504), selumetinib (741078), bortezomib (756655), trametinib (758246), ixazomib (758254), vemurafenib (761431), dabrafenib (764134), sapanisertib (764658), alpelisib (765974), and copanlisib (816437), were obtained from the National Cancer Institute (NCI) Developmental Therapeutics Program Chemical Repository. The FDA-approved anticancer drug set is available from the NCI Developmental Therapeutics Program. […] The stock solutions were prepared in dimethyl sulfoxide (DMSO, Sigma-Aldrich, St. Louis, MO, cat. D2650) at 800-fold the tested concentration and stored at -70 degrees C prior to their use. All drugs and investigational agents were tested over a range starting from a high concentration at or near the clinical Cmax and decreasing in half-log increments. If the clinical Cmax for an agent had not been determined, the highest concentration tested was 10 microM.
NCI60 Cell Culture. NCI60 cell lines were obtained from the NCI Developmental Therapeutics Program Tumor Repository. For each lot of cells, the Repository performed Applied Biosystems AmpFLSTR Identifiler testing with PCR amplification to confirm consistency with the published Identifier STR profile for each cell line. Cells were kept in continuous culture for no more than 20 passages. The optimal seeding densities for each of the cell lines at each time point assessed were determined prior to performing the concentration response studies. Briefly, the NCI60 human tumor lines were grown as monolayers in RPMI 1640 medium supplemented with 10% FBS and 2 mmol/L L-glutamine.
An additional 2 lines were from the NCI60 cell line panel including melanomas, MALME-3M and SK-MEL-2. Pooled donor human umbilical vein endothelial cells (HUVEC, Lonza, cat. CC-2519) and human mesenchymal stem cells (hMSC, Lonza, cat. PT-2501) were purchased from Lonza (Walkersville, MD).
PDMR cell lines were grown in complete medium (DC medium): Dulbecco's modified Eagle's medium (DMEM)/F12 supplemented with 5% fetal bovine serum (FBS), 2 mM L-glutamine, 100 U/mL penicillin and 100 µg/ml streptomycin, 0.4 µg/ml hydrocortisone, 10 ng/ml epidermal growth factor (EGF) recombinant human protein, 24 µg/mL adenine, and 0.1 mg/mL primocin. During culture from frozen stock vials, PDMR cells were cultured in the same medium containing 10 µM Y-27632 (see Table 3). The PDCs were cultured in complete DMEM/F12 media without 10 microM Y-27632 dihydrochloride for at least two passages prior to the screen. The pooled donor HUVEC and hMSC were cultured in endothelial cell growth medium 2 (PromoCell, Heidelberg, Germany, cat. C-22011) and mesenchymal stem cell growth medium 2 (PromoCell, cat. C-28009), respectively. For all experiments, HUVEC and hMSC were used at passages </=5.
For the pre-screen, cell seeding densities were determined from a titration spanning the range from 5,000 to 313 cells per well. The mct-spheroids including 60% malignant cells, 25% HUVEC and 15% MSC dispensed as a mixture into U-bottom Ultra-Low Attachment 384-well plates (Corning, NY)
High-throughput Drug Combination Screening.
Prior to their inoculation into 384-well plates, malignant cells, HUVEC, and hMSC were removed from T flasks using TrypLE express (Thermo Fisher Scientific, cat. 12605036) and harvested by centrifugation for 5 min at 233 x g. […]

[1] = curve of first compound, second compound 0.3 µM
[2] = curve of first compound, second compound 0.949 µM
[3] = curve of first compound, second compound 3 µM
[4] = curve of first compound, second compound 9.49 µM
[5] = curve of first compound, second compound 30 µM
[6] = second compound 0.3 µM, first compound 0.0316 µM
[7] = second compound 0.3 µM, first compound 0.1 µM
[8] = second compound 0.949 µM, first compound 0.0316 µM
[9] = second compound 0.949 µM, first compound 0.1 µM
[10] = second compound 3 µM, first compound 0.0316 µM
[11] = second compound 3 µM, first compound 0.1 µM
[12] = second compound 9.49 µM, first compound 0.0316 µM
[13] = second compound 9.49 µM, first compound 0.1 µM
[14] = second compound 30 µM, first compound 0.0316 µM
[15] = second compound 30 µM, first compound 0.1 µM
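Note: spheroids exposed to drugs for seven days.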
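Throughout, for viability, T/C: 100% = DMSO vehicle control wells.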

Compound: Cc1nc(NC(=O)N2CCCC2C(N)=O)sc1-c1ccnc(C(C)(C)C(F)(F)F)c1 (stereo unspecified) + CC(C)NCC(C(=O)N1CCN(c2ncnc3c2C(C)CC3O)CC1)c1ccc(Cl)cc1
IC50 [1]: > 10000 nM
IC50 [2]: > 10000 nM
IC50 [3]: > 10000 nM
IC50 [4]: 9460 nM
IC50 [5]: 4990 nM
viability, T/C [6]: 102%
viability, T/C [7]: 95.6%
viability, T/C (second compound 0.3 µM, first compound 0.316 µM): 89.5%
viability, T/C (second compound 0.3 µM, first compound 1 µM): 82.1%
viability, T/C (second compound 0.3 µM, first compound 3.16 µM): 74.4%
viability, T/C (second compound 0.3 µM, first compound 10 µM): 52.5%
viability, T/C [8]: 101%
viability, T/C [9]: 97.7%
viability, T/C (second compound 0.949 µM, first compound 0.316 µM): 94.4%
viability, T/C (second compound 0.949 µM, first compound 1 µM): 88.7%
viability, T/C (second compound 0.949 µM, first compound 3.16 µM): 74.3%
viability, T/C (second compound 0.949 µM, first compound 10 µM): 57.9%
viability, T/C [10]: 98.6%
viability, T/C [11]: 98.4%
viability, T/C (second compound 3 µM, first compound 0.316 µM): 86.7%
viability, T/C (second compound 3 µM, first compound 1 µM): 81.8%
viability, T/C (second compound 3 µM, first compound 3.16 µM): 71.7%
viability, T/C (second compound 3 µM, first compound 10 µM): 51.6%
viability, T/C [12]: 89.4%
viability, T/C [13]: 94.5%
viability, T/C (second compound 9.49 µM, first compound 0.316 µM): 88.1%
viability, T/C (second compound 9.49 µM, first compound 1 µM): 79.5%
viability, T/C (second compound 9.49 µM, first compound 3.16 µM): 66.7%
viability, T/C (second compound 9.49 µM, first compound 10 µM): 49%
viability, T/C [14]: 80%
viability, T/C [15]: 82%
viability, T/C (second compound 30 µM, first compound 0.316 µM): 71.7%
viability, T/C (second compound 30 µM, first compound 1 µM): 67.4%
viability, T/C (second compound 30 µM, first compound 3.16 µM): 59.9%
viability, T/C (second compound 30 µM, first compound 10 µM): 37.9%

Compound: CC(C)n1nc(-c2ccc3oc(N)nc3c2)c2c(N)ncnc21 + CC(C)NCC(C(=O)N1CCN(c2ncnc3c2C(C)CC3O)CC1)c1ccc(Cl)cc1
IC50 [1]: > 100 nM
IC50 [2]: > 100 nM
IC50 [3]: > 100 nM
IC50 [4]: 76.5 nM
IC50 [5]: 24.3 nM
viability, T/C (second compound 0.3 µM, first compound 0.000316 µM): 108%
viability, T/C (second compound 0.3 µM, first compound 0.001 µM): 102%
viability, T/C (second compound 0.3 µM, first compound 0.00316 µM): 95.8%
viability, T/C (second compound 0.3 µM, first compound 0.01 µM): 79.2%
viability, T/C [6]: 71.1%
viability, T/C [7]: 59.5%
viability, T/C (second compound 0.949 µM, first compound 0.000316 µM): 96.9%
viability, T/C (second compound 0.949 µM, first compound 0.001 µM): 99.5%
viability, T/C (second compound 0.949 µM, first compound 0.00316 µM): 89.7%
viability, T/C (second compound 0.949 µM, first compound 0.01 µM): 80.3%
viability, T/C [8]: 68.3%
viability, T/C [9]: 57.5%
viability, T/C (second compound 3 µM, first compound 0.000316 µM): 90.6%
viability, T/C (second compound 3 µM, first compound 0.001 µM): 95.3%
viability, T/C (second compound 3 µM, first compound 0.00316 µM): 87.4%
viability, T/C (second compound 3 µM, first compound 0.01 µM): 80.3%
viability, T/C [10]: 65.9%
viability, T/C [11]: 54.4%
viability, T/C (second compound 9.49 µM, first compound 0.000316 µM): 84.9%
viability, T/C (second compound 9.49 µM, first compound 0.001 µM): 91.4%
viability, T/C (second compound 9.49 µM, first compound 0.00316 µM): 82.6%
viability, T/C (second compound 9.49 µM, first compound 0.01 µM): 77.3%
viability, T/C [12]: 60.3%
viability, T/C [13]: 46.9%
viability, T/C (second compound 30 µM, first compound 0.000316 µM): 67.7%
viability, T/C (second compound 30 µM, first compound 0.001 µM): 69.2%
viability, T/C (second compound 30 µM, first compound 0.00316 µM): 75.6%
viability, T/C (second compound 30 µM, first compound 0.01 µM): 68.5%
viability, T/C [14]: 44.4%
viability, T/C [15]: 36.6%

Compound: COC1CC2CCC(C)C(O)(O2)C(=O)C(=O)N2CCCCC2C(=O)OC(C(C)CC2CCC(OCCO)C(OC)C2)CC(=O)C(C)C=C(C)C(O)C(OC)C(=O)C(C)CC(C)C=CC=CC=C1C (stereo unspecified)
viability, T/C (compound 0.000316 µM): 108% and 127%
viability, T/C (compound 0.001 µM): 103% and 118%
viability, T/C (compound 0.00316 µM): 90.9% and 96.7%
viability, T/C (compound 0.01 µM): 88.1% and 93.2%
viability, T/C (compound 0.0316 µM): 84.9% and 77.9%
viability, T/C (compound 0.1 µM): 83.9% and 82.5%
IC50 (curve of compound): > 100 nM

Now from value to compound, other results behind:

IC50 (curve of compound): 57.2 nM and 55.2 nM
Compound: CC(C)CC(NC(=O)CNC(=O)c1cc(Cl)ccc1Cl)B1OC(=O)CC(CC(=O)O)(C(=O)O)O1 (stereo unspecified)
viability, T/C (compound 0.000316 µM): 113% and 106%
viability, T/C (compound 0.001 µM): 112% and 104%
viability, T/C (compound 0.00316 µM): 103% and 102%
viability, T/C (compound 0.01 µM): 111% and 109%
viability, T/C (compound 0.0316 µM): 78.3% and 75.7%
viability, T/C (compound 0.1 µM): 23.4% and 22.6%

IC50 (curve of compound): > 100000 nM
Compound: CCCS(=O)(=O)Nc1ccc(F)c(C(=O)c2c[nH]c3ncc(-c4ccc(Cl)cc4)cc23)c1F
viability, T/C (compound 0.316 µM): 113% and 115%
viability, T/C (compound 1 µM): 122%
viability, T/C (compound 3.16 µM): 114% and 109%
viability, T/C (compound 10 µM): 75.1% and 65.5%
viability, T/C (compound 31.6 µM): 118% and 111%
viability, T/C (compound 100 µM): 101% and 111%
